Assay results taken from patent US10100022B2, “Sphingosine kinase inhibitors” (University of Virginia Patent Foundation, priority 2014, dated 2018).
Where a name gives a salt, the structure may show the parent alone.

Experiments:
[1] = target: T1, human sphingosine kinase type 2 (hSPHK2) (Homo sapiens, UniProt Q9NRA0); experiment: Sphingosine kinase assay, recombinant human SPHK2 ([32P]S1P product, scintillation counting); type: biochemical; details: read-out: activity hSPHK2 (range estimate of KI)
T1 construct: purchased; host or cells: Sf9 insect cells (baculovirus)
T1 sequence (Q9NRA0 1-654): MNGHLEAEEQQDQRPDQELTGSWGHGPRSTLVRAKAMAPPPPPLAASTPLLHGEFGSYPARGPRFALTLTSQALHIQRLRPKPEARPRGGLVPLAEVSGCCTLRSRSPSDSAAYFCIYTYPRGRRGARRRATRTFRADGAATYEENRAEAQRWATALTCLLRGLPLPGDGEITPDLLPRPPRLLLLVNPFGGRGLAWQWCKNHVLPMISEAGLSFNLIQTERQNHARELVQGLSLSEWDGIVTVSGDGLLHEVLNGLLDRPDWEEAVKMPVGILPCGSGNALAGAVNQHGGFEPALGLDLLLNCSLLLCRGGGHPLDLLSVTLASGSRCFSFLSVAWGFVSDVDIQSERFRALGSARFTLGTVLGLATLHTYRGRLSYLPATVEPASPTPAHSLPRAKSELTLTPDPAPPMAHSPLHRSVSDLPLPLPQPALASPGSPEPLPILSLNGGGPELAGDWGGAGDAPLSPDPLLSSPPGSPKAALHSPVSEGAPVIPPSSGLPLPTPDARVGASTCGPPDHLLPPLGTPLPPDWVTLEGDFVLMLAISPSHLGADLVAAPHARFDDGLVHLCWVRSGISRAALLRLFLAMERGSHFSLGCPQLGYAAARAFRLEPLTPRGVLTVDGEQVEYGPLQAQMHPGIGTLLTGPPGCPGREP
Method in brief: (§1)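 SPHK1 from cleared lysates of baculovirus-infected Sf9 cells, unpurified; SPHK2 partially purified from Sf9 lysates. Standard sphingosine kinase protocol; [32P]S1P product captured on cation exchange paper and counted by scintillation.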

[2] = target: T2, human sphingosine kinase type 1 (hSPHK1) (Homo sapiens, UniProt Q9NYA1); experiment: Sphingosine kinase assay, recombinant human SPHK1 ([32P]S1P product, scintillation counting); type: biochemical; details: read-out: activity hSPHK1 (range estimate of KI)
T2 construct: made in house; host or cells: Sf9 insect cells (baculovirus)
T2 sequence (Q9NYA1 whole entry): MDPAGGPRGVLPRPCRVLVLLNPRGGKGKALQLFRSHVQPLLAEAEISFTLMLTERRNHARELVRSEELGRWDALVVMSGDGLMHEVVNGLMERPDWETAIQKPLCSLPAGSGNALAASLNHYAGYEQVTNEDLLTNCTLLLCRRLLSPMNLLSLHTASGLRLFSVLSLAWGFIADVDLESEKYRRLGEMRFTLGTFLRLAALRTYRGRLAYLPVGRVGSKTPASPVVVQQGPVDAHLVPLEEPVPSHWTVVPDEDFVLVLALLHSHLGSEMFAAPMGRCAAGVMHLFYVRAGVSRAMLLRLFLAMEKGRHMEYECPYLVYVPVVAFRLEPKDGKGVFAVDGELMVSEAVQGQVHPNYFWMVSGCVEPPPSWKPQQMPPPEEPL
Method in brief: as §1

[3] = patients, 1-yr trial; cited from earlier work

| Structure (SMILES) | Ki [1] [µM] | Ki [2] [µM] | modest hypertension [3] |
| --- | --- | --- | --- |
| CCCCCC=CCOc1ccc(-c2noc([C@@H]3CCCN3C(=N)N)n2)cc1C(F)(F)F [Compound 82A, (S)-amino(2-(3-(4-(oct-2-en-1-yloxy)-3-(trifluoromethyl)phenyl)-1,2,4-oxadiazol-5-yl)pyrrolidin-1-yl)methaniminium 2,2,2-trifluoroacetate] | < 1 | > 10 | – |
| CCC/C=C\CCOc1ccc(-c2noc([C@@H]3CCCN3C(=N)N)n2)cc1C(F)(F)F [Compound 84A, (S,Z)-amino(2-(3-(4-(hept-3-en-1-yloxy)-3-(trifluoromethyl)phenyl)-1,2,4-oxadiazol-5-yl)pyrrolidin-1-yl)methaniminium 2,2,2-trifluoroacetate] | < 1 | > 10 | – |
| CCCC/C=C\CCOc1ccc(-c2noc([C@@H]3CCCN3C(=N)N)n2)cc1C(F)(F)F [Compound 85A, (S,Z)-amino(2-(3-(4-(oct-3-en-1-yloxy)-3-(trifluoromethyl)phenyl)-1,2,4-oxadiazol-5-yl)pyrrolidin-1-yl)methaniminium 2,2,2-trifluoroacetate] | < 1 | > 10 | – |
| N=C(N)N1CCC[C@H]1c1nc(-c2ccc(OC/C=C/c3cccc(Br)c3)c(C(F)(F)F)c2)no1 [Compound 86A, (S,E)-2-(3-(4-((3-(3-bromophenyl)allyl)oxy)-3-(trifluoromethyl)phenyl)-1,2,4-oxadiazol-5-yl)pyrrolidine-1-carboximidamide hydrochloride] | < 1 | > 10 | – |
| N=C(N)N1CCC[C@H]1c1nc(-c2ccc(OC/C=C/c3ccc(F)cc3)c(C(F)(F)F)c2)no1 [Compound 87A, (S,E)-2-(3-(4-((3-(4-fluorophenyl)allyl)oxy)-3-(trifluoromethyl)phenyl)-1,2,4-oxadiazol-5-yl)pyrrolidine-1-carboximidamide hydrochloride] | < 1 | > 10 | – |
| N=C(N)N1CCC[C@H]1c1nc(-c2ccc(OC/C=C/c3ccc(C(F)(F)F)cc3)c(C(F)(F)F)c2)no1 [Compound 88A, (S,E)-amino(2-(3-(3-(trifluoromethyl)-4-((3-(4-(trifluoromethyl)phenyl)allyl)oxy)phenyl)-1,2,4-oxadiazol-5-yl)pyrrolidin-1-yl)methaniminium 2,2,2-trifluoroacetate] | < 1 | > 10 | – |
| N=C(N)N1CCC[C@H]1c1nc(-c2ccc(OC/C=C/c3ccccc3C(F)(F)F)c(C(F)(F)F)c2)no1 [Compound 89A, (S,E)-2-(3-(3-(trifluoromethyl)-4-((3-(2-(trifluoromethyl)phenyl)allyl)oxy)phenyl)-1,2,4-oxadiazol-5-yl)pyrrolidine-1-carboximidamide hydrochloride] | > 10 | > 10 | – |
| N=C(N)N1CCC[C@H]1c1nc(-c2ccc(OC/C=C/c3cccc(C(F)(F)F)c3)c(C(F)(F)F)c2)no1 [Compound 90A, (S,E)-amino(2-(3-(3-(trifluoromethyl)-4-((3-(3-(trifluoromethyl)phenyl)allyl)oxy)phenyl)-1,2,4-oxadiazol-5-yl)pyrrolidin-1-yl)methaniminium 2,2,2-trifluoroacetate] | < 1 | > 10 | – |
| N=C(N)N1CCC[C@H]1c1nc(-c2ccc(OCC/C=C/c3ccc(C(F)(F)F)cc3)c(C(F)(F)F)c2)no1 [Compound 91A, (S,E)-2-(3-(3-(trifluoromethyl)-4-((4-(4-(trifluoromethyl)phenyl)but-3-en-1-yl)oxy)phenyl)-1,2,4-oxadiazol-5-yl)pyrrolidine-1-carboximidamide hydrochloride] | < 1 | > 10 | – |
| N=C(N)N1CCC[C@H]1c1nc(-c2ccc(OC/C=C\c3ccc(C(F)(F)F)cc3)c(C(F)(F)F)c2)no1 [Compound 92A, (S,Z)-amino(2-(3-(3-(trifluoromethyl)-4-((3-(4-(trifluoromethyl)phenyl)allyl)oxy)phenyl)-1,2,4-oxadiazol-5-yl)pyrrolidin-1-yl)methaniminium 2,2,2-trifluoroacetate] | < 1 | > 10 | – |
| CC(C)=CCC/C(C)=C/COc1ccc(-c2noc([C@@H]3CCCN3C(=N)N)n2)cc1C(F)(F)F [Compound 93A, (S,E)-(2-(3-(4-((3,7-dimethylocta-2,6-dien-1-yl)oxy)-3-(trifluoromethyl)phenyl)-1,2,4-oxadiazol-5-yl)pyrrolidin-1-yl)(13-iodanylidene)methanamine hydrochloride] | > 10 | > 10 | – |
| CCCOc1ccc(CCc2ccc(-c3noc([C@@H]4CCCN4C(=N)N)n3)cc2C(F)(F)F)cc1 [Compound 94A, (S)-2-(3-(4-(4-propoxyphenethyl)-3-(trifluoromethyl)phenyl)-1,2,4-oxadiazol-5-yl)pyrrolidine-1-carboximidamide hydrochloride] | < 1 | > 10 | – |
| N=C(N)N1CC[C@H](O)[C@H]1c1nc(-c2ccc(OCCCC3CCCCC3)c(C(F)(F)F)c2)no1 [Compound 95A, amino((2S,3S)-2-(3-(4-(3-cyclohexylpropoxy)-3-(trifluoromethyl)phenyl)-1,2,4-oxadiazol-5-yl)-3-hydroxypyrrolidin-1-yl)methaniminium chloride] | < 1 | 1 to 10 | – |
| N=C(N)N1CC[C@H](O)[C@H]1c1nc(-c2ccc(OCC3CCCCC3)c(C(F)(F)F)c2)no1 [Compound 96A, amino((2S,3S)-2-(3-(4-(cyclohexylmethoxy)-3-(trifluoromethyl)phenyl)-1,2,4-oxadiazol-5-yl)-3-hydroxypyrrolidin-1-yl)methaniminium chloride] | < 1 | < 1 | – |
| CCCCCCCCc1ccc(CCC(N)(CO)CO)cc1 [fingolimod, 2-amino-2-[2-(4-octylphenyl)ethyl] propane 1,3-diol] | – | – | 2-3 mmHg |
